# pIC50: −log10 of the molar value.
# Legend:
# [1] = target: Histamine H1 receptor (Homo sapiens) (UniProt P35367); assay: Inhibition of Histamine H1 receptor (unknown origin) at 10 uM
# [2] = target: Indoleamine 2,3-dioxygenase 1 (Homo sapiens, UniProt P14902); assay: Inhibition of human Indoleamine 2,3-dioxygenase using L-tryptophan as substrate by emission fluorescence analysis
# [3] = target: L-type calcium channel, dihydropyridine binding site (Homo sapiens, UniProt O60840+Q01668+Q13698+Q13936); assay: Inhibition of L-type calcium channel dihydropyridine binding site (unknown origin) at 10 uM; format: protein assay
# Mus musculus [4] = assay: Decrease in ratio of kynurenine to tryptophan in C57BL/6 mouse at 50 mg/kg, po after 2 hrs by LC-MS/MS analysis; format: functional; conditions: C57BL/6, po
# [5] = target: B1 bradykinin receptor (Homo sapiens) (UniProt P46663); assay: Inhibition of Bradykinin B1 receptor (unknown origin) at 10 uM
# B1 bradykinin receptor (Homo sapiens), sequence (P46663 whole entry): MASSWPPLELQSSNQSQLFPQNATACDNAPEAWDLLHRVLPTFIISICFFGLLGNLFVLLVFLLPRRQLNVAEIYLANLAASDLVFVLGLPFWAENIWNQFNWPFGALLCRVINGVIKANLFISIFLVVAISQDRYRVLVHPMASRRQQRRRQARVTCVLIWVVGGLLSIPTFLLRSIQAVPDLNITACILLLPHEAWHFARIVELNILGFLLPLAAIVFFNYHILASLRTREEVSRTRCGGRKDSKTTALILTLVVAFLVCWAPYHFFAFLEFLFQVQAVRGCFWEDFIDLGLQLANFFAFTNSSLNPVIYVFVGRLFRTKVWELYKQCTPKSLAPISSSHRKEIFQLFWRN
# [6] = target: B2 bradykinin receptor (Homo sapiens) (UniProt P30411); assay: Inhibition of Bradykinin B2 receptor (unknown origin) at 10 uM
# B2 bradykinin receptor (Homo sapiens), sequence (P30411 whole entry): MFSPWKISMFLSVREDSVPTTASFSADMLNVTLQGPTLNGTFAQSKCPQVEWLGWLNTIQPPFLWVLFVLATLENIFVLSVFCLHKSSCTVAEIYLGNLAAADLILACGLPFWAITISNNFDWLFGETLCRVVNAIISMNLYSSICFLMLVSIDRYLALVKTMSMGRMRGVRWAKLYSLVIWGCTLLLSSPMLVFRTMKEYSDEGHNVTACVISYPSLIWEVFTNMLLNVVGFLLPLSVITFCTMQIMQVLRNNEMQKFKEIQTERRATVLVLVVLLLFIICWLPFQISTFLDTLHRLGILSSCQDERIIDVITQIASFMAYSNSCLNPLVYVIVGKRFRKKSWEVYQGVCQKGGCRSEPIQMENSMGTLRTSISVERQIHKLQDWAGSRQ
# Homo sapiens [7] = species on record: Homo sapiens; assay: Inhibition of D4.2 receptor (unknown origin) at 10 uM
# [8] = target: Sodium-dependent serotonin transporter (Homo sapiens) (UniProt P31645); assay: Inhibition of Serotonin transporter (unknown origin) at 10 uM
# Sodium-dependent serotonin transporter (Homo sapiens), sequence (P31645 whole entry, looked up): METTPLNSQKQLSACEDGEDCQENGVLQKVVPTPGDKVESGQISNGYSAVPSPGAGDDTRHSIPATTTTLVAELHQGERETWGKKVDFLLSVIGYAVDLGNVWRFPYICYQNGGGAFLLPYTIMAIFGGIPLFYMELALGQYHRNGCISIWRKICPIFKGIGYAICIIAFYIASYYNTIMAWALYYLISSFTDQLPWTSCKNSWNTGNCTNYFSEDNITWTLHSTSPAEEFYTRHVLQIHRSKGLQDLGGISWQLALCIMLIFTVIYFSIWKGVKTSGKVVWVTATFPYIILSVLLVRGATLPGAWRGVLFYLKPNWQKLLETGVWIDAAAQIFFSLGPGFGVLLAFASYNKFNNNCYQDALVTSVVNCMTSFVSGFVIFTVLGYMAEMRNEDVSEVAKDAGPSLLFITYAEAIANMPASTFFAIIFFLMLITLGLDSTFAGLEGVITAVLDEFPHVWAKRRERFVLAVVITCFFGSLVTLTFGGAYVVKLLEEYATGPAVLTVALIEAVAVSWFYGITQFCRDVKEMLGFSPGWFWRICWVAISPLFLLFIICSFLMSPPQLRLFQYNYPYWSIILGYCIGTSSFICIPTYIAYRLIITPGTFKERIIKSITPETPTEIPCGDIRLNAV
# CT26 [9] = assay: Antitumor activity against mouse CT26 cells xenografted in Balb/c mouse assessed as tumor growth delay at 100 mg/kg, po bid for 22 days; format: functional; conditions: 528 h, read-out: TGI
# CT26 [10] = assay: Antitumor activity against mouse CT26 cells xenografted in Balb/c mouse assessed as median time to end point at 400 mg/kg, po bid for 22 days; format: functional
# Homo sapiens [11] = species on record: Homo sapiens; assay: Inhibition of Glutamate kainate receptor (unknown origin) at 10 uM
# Homo sapiens [12] = species on record: Homo sapiens; assay: Inhibition of Platelet-activating factor (unknown origin) at 10 uM
# CT26 [13] = assay: Antitumor activity against mouse CT26 cells xenografted in Balb/c mouse assessed as median time to end point at 200 mg/kg, po bid for 22 days; format: functional
# [14] = target: Gamma-aminobutyric acid type B receptor subunit 1 (Homo sapiens) (UniProt Q9UBS5); assay: Inhibition of GABAB1A receptor (unknown origin) at 10 uM
# [15] = target: Adenosine receptor A3 (Homo sapiens) (UniProt P0DMS8); assay: Inhibition of Adenosine A3 receptor (unknown origin) at 10 uM
# Adenosine receptor A3 (Homo sapiens), sequence (P0DMS8 whole entry): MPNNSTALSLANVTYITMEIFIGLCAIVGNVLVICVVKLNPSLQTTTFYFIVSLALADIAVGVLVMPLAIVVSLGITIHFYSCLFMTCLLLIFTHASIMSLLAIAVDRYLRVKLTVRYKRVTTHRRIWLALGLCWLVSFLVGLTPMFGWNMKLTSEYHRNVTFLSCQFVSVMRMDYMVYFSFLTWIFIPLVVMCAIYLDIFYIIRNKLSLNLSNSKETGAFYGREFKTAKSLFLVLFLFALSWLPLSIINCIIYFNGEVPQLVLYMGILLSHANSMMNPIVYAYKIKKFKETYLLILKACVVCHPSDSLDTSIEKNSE
# [16] = target: Muscarinic acetylcholine receptor M3 (Homo sapiens) (UniProt P20309); assay: Inhibition of Muscarinic M3 receptor (unknown origin) at 10 uM
# Muscarinic acetylcholine receptor M3 (Homo sapiens), sequence (P20309 whole entry, looked up): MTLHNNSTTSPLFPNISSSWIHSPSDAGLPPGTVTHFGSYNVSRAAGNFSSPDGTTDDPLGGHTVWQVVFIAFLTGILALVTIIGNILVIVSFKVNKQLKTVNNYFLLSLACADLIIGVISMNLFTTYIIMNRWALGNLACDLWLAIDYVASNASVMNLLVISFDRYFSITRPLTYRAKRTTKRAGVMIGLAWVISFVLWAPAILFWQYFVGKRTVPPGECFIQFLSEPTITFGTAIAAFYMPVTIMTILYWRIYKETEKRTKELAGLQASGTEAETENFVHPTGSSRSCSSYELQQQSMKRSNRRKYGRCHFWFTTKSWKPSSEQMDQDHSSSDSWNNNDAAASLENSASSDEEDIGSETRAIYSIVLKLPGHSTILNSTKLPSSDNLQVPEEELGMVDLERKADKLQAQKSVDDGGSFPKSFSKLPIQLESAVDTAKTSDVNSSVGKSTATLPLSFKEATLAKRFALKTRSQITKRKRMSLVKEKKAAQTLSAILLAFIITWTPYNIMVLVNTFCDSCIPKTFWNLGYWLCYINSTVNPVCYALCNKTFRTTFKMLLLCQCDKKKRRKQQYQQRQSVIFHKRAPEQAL
# Homo sapiens [17] = species on record: Homo sapiens; assay: Inhibition of potassium channel (unknown origin) at 10 uM
# Homo sapiens [18] = species on record: Homo sapiens; assay: Inhibition of MT1 receptor (unknown origin) at 10 uM
# [19] = Cmax in Sprague-Dawley rat plasma at 10 mg/kg, po by LC-MS/MS analysis; format: ADME, organism-based; design: dose 10 mg/kg, route oral
# [20] = target: Thyroid hormone receptor (Homo sapiens) (UniProt P10827+P10828); assay: Inhibition of Thyroid hormone receptor (unknown origin) at 10 uM; format: protein-complex assay
# [21] = Tmax in Sprague-Dawley rat plasma at 10 mg/kg, po by LC-MS/MS analysis; format: ADME, organism-based
# Mus musculus [22] = assay: Decrease in ratio of kynurenine to tryptophan in Balb/c mouse tumor xenografted with CT26 cells at 100 mg/kg bid for 18 days administered via oral gavage after 6 hrs by LC-MS/MS analysis; format: functional
# [23] = target: Sodium-dependent noradrenaline transporter (Homo sapiens) (UniProt P23975); assay: Inhibition of Norepinephrine transporter (unknown origin) at 10 uM
# [24] = target: Histamine H2 receptor (Homo sapiens) (UniProt P25021); assay: Inhibition of Histamine H2 receptor (unknown origin) at 10 uM
# [25] = target: Adenosine receptor A2a (Homo sapiens) (UniProt P29274); assay: Inhibition of Adenosine A2A receptor (unknown origin) at 10 uM
# Adenosine receptor A2a (Homo sapiens), sequence (P29274 whole entry): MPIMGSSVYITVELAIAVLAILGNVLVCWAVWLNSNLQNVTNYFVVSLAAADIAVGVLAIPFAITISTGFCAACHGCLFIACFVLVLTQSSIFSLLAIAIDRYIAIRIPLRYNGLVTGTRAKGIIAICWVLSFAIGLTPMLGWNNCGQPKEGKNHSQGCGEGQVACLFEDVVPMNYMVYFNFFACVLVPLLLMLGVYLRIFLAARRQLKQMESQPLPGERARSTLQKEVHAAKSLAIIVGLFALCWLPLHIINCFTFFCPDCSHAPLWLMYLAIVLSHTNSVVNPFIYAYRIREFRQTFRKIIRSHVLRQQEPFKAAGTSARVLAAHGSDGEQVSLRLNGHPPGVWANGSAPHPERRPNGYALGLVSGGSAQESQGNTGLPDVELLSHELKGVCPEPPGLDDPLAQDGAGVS
# [26] = target: 5-hydroxytryptamine receptor 2B (Homo sapiens) (UniProt P41595); assay: Inhibition of 5-HT2B receptor (unknown origin) at 10 uM
# [27] = AUC (0 to infinity) in Sprague-Dawley rat plasma at 2 mg/kg, iv by LC-MS/MS analysis; format: ADME, organism-based; design: dose 2 mg/kg, route intravenous, time infinity
# [28] = target: Substance-P receptor (Homo sapiens) (UniProt P25103); assay: Inhibition of Tachykinin NK1 receptor (unknown origin) at 10 uM
# Homo sapiens [29] = species on record: Homo sapiens; assay: Inhibition of GABAA receptor central muscimol site (unknown origin) at 10 uM
# [30] = target: 5-hydroxytryptamine receptor 1A (Homo sapiens) (UniProt P08908); assay: Inhibition of 5HT-1A (unknown origin) at 10 uM
# [31] = target: Beta-2 adrenergic receptor (Homo sapiens) (UniProt P07550); assay: Inhibition of Adrenergic beta2 receptor (unknown origin) at 10 uM
# [32] = target: Sodium- and chloride-dependent GABA transporter 1 (Homo sapiens) (UniProt P30531); assay: Inhibition of GABA transporter (unknown origin) at 10 uM
# Homo sapiens [33] = species on record: Homo sapiens; assay: Inhibition of Nicotinic acetylcholine receptor (unknown origin) at 10 uM
# [34] = target: D(3) dopamine receptor (Homo sapiens) (UniProt P35462); assay: Inhibition of Dopamine D3 receptor (unknown origin) at 10 uM
# [35] = Volume of distribution at steady state in Sprague-Dawley rat plasma at 2 mg/kg, iv by LC-MS/MS analysis; format: ADME, organism-based; conditions: Sprague-Dawley, plasma, read-out: Vdss
# [36] = target: Endothelin-1 receptor (Homo sapiens) (UniProt P25101); assay: Inhibition of ETA receptor (unknown origin) at 10 uM
# Endothelin-1 receptor (Homo sapiens), sequence (P25101 whole entry): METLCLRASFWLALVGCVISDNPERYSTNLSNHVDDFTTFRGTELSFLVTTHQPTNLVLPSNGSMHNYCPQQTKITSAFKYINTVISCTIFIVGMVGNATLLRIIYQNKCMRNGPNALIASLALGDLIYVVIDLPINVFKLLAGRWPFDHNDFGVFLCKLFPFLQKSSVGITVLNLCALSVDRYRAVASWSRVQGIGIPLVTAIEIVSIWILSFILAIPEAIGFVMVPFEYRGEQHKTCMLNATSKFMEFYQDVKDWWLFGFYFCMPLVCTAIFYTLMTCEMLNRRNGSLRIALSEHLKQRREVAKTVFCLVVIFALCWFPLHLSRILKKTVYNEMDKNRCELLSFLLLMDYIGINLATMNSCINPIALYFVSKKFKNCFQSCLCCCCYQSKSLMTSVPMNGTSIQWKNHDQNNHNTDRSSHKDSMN
# Homo sapiens [37] = species on record: Homo sapiens; assay: Inhibition of GABAA receptor central flunitrazepam site (unknown origin) at 10 uM
# [38] = target: Muscarinic acetylcholine receptor M2 (Homo sapiens) (UniProt P08172); assay: Inhibition of Muscarinic M2 receptor (unknown origin) at 10 uM
# [39] = target: Glucocorticoid receptor (Homo sapiens) (UniProt P04150); assay: Inhibition of Glucocorticoid receptor (unknown origin) at 10 uM
# CT26 [40] = assay: Antitumor activity against mouse CT26 cells xenografted in Balb/c mouse assessed as tumor growth delay at 200 mg/kg, po bid for 22 days; format: functional; conditions: 528 h, read-out: TGI
# [41] = target: Prostaglandin E2 receptor EP4 subtype (Homo sapiens) (UniProt P35408); assay: Inhibition of Prostaglandin E2 receptor EP4 (unknown origin) at 10 uM
# Prostaglandin E2 receptor EP4 subtype (Homo sapiens), sequence (P35408 whole entry): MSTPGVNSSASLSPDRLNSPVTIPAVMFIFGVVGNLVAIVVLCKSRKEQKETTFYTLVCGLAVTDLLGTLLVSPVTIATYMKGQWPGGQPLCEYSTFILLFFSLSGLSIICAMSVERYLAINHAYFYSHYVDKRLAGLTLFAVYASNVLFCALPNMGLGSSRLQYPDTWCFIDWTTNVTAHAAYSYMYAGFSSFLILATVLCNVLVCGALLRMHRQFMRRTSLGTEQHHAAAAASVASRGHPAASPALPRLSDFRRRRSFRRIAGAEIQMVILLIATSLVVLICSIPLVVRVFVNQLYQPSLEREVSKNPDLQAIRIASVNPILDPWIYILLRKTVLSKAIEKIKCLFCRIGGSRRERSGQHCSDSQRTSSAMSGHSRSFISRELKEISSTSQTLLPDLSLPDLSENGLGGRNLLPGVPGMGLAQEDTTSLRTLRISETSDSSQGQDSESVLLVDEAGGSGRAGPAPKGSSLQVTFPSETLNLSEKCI
# [42] = target: Glutamate [NMDA] receptor (Homo sapiens) (UniProt Q05586+Q12879+Q13224+O15399+O60391+Q14957+Q8TCU5); assay: Inhibition of NMDA receptor glycine binding site (unknown origin) at 10 uM
# [43] = target: Mu-type opioid receptor (Homo sapiens) (UniProt P35372); assay: Inhibition of Opiate mu receptor (unknown origin) at 10 uM
# [44] = target: Androgen receptor (Homo sapiens) (UniProt P10275); assay: Inhibition of Androgen receptor (unknown origin) at 10 uM
# Androgen receptor (Homo sapiens), sequence (P10275 whole entry): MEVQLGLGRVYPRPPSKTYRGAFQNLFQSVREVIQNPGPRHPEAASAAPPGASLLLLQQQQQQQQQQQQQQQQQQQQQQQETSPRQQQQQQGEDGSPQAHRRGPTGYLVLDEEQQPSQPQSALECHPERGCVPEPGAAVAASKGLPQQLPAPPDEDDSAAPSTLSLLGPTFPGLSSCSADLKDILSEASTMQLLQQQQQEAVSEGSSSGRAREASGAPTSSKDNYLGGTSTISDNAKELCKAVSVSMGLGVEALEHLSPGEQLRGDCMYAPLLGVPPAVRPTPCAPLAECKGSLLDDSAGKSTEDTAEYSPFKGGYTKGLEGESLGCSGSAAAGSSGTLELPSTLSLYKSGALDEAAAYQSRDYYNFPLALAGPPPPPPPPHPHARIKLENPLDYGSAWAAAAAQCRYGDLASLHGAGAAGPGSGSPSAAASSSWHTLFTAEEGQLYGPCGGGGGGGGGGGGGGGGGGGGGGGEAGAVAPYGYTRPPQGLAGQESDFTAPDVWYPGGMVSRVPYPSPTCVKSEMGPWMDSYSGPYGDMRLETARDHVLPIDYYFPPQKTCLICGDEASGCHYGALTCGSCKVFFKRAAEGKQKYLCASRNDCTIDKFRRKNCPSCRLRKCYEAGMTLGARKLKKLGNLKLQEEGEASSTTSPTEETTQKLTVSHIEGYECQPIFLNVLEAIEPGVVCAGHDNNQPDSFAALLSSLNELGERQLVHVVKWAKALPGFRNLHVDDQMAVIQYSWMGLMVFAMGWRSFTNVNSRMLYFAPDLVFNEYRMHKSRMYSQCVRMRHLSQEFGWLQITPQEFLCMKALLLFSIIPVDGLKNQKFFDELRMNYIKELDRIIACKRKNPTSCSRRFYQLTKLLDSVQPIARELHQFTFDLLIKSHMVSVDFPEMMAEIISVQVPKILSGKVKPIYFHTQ
# [45] = target: Endothelin receptor type B (Homo sapiens) (UniProt P24530); assay: Inhibition of ETB receptor (unknown origin) at 10 uM
# Indoleamine 2,3-dioxygenase 1, sequence (P14902 whole entry): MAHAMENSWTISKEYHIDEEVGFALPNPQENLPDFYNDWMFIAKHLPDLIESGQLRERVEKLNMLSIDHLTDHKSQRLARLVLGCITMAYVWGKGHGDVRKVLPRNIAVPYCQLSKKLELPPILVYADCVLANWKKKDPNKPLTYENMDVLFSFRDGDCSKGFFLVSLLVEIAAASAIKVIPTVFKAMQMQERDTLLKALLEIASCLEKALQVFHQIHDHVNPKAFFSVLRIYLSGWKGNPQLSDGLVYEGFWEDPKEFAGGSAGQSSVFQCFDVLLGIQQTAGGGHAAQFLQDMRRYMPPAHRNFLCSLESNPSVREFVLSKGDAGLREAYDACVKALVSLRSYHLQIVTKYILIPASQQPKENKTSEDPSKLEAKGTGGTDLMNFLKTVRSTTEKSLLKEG
smiles,measurement,setting,value
O=C1Cc2cc(S(=O)(=O)NNc3ccc(Br)cc3)ccc2N1,inhibition,[1],< 50%
same,pIC50,[2],7.45
same,inhibition at 10 µM,[3],< 50%
same,inhibition in vivo at 50 mg/kg,Mus musculus [4],31%
same,inhibition,[5],< 50%
same,inhibition,[6],< 50%
same,inhibition,Homo sapiens [7],< 50%
same,inhibition,[8],< 50%
same,inhibition in vivo at 100 mg/kg,CT26 [9],40%
same,Time,CT26 [10],7.4 days
same,inhibition,Homo sapiens [11],< 50%
same,inhibition,Homo sapiens [12],< 50%
same,Time,CT26 [13],6.4 days
same,inhibition,[14],< 50%
same,inhibition,[15],< 50%
same,inhibition,[16],< 50%
same,inhibition,Homo sapiens [17],< 50%
same,inhibition,Homo sapiens [18],< 50%
same,Cmax,[19],2590 ng/mL
same,inhibition,[20],< 50%
same,Tmax,[21],48 min
same,inhibition in vivo at 100 mg/kg,Mus musculus [22],83%
same,inhibition,[23],62%
same,inhibition,[24],< 50%
same,inhibition,[25],< 50%
same,inhibition,[26],< 50%
same,AUC(0-inf),[27],2430 ng·h/mL
same,inhibition,[28],< 50%
same,inhibition,Homo sapiens [29],< 50%
same,inhibition,[30],< 50%
same,inhibition,[31],< 50%
same,inhibition,[32],< 50%
same,inhibition,Homo sapiens [33],< 50%
same,inhibition,[34],< 50%
same,Vd,[35],1.2 L/kg
same,inhibition,[36],< 50%
same,inhibition,Homo sapiens [37],< 50%
same,inhibition,[38],< 50%
same,inhibition,[39],< 50%
same,inhibition in vivo at 200 mg/kg,CT26 [40],63%
same,inhibition,[41],< 50%
same,inhibition,[42],< 50%
same,inhibition,[43],< 50%
same,inhibition,[44],< 50%
same,inhibition,[45],< 50%

# Source: ChEMBL document CHEMBL3763120, “Phenyl Benzenesulfonylhydrazides Exhibit Selective Indoleamine 2,3-Dioxygenase Inhibition with Potent in Vivo Pharmacodynamic Activity and Antitumor Efficacy” (J Med Chem, 2016)
